Measurements from ChEMBL document CHEMBL5303765, “Data for DCP probe BAY-7081” (2023).

What was measured:
[1] = target: Type-1 angiotensin II receptor (Homo sapiens) (UniProt P30556); assay: Angiotensin AT1 Eurofins Panlabs panel; conditions: Compound concentration 10.0 uM
[2] = target: Sodium-dependent noradrenaline transporter (Homo sapiens) (UniProt P23975); assay: Transporter, Norepinephrine (NET) Eurofins Panlabs panel; conditions: Compound concentration 10.0 uM
[3] = target: Alpha-1A adrenergic receptor (Homo sapiens) (UniProt P35348); conditions: Compound concentration 10.0 uM
Chain of Alpha-1A adrenergic receptor (Homo sapiens) (P35348 whole entry): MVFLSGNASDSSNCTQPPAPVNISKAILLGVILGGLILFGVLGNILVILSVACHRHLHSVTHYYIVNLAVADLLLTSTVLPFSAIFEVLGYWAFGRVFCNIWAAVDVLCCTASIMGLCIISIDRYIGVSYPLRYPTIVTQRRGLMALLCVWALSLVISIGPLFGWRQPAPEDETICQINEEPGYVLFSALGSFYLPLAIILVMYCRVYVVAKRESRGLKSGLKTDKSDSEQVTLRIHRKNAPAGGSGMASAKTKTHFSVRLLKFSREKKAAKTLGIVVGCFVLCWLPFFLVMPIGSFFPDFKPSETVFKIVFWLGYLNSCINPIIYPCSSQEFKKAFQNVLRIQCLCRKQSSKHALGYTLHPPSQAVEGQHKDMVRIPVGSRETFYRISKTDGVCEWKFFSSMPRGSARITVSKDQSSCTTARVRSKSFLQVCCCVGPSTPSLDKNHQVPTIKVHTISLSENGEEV

[4] = target: Carbonic anhydrase 2 (Homo sapiens) (UniProt P00918); assay: Carbonic Anhydrase II Eurofins Panlabs panel; conditions: Compound concentration 10.0 uM
[5] = target: Interleukin-1 receptor type 1 (Mus musculus) (UniProt P13504); assay: Interleukin IL-1 Eurofins Panlabs panel; conditions: Compound concentration 10.0 uM
[6] = target: Progesterone receptor (Homo sapiens) (UniProt P06401); assay: Progesterone PR-B Eurofins Panlabs panel; conditions: Compound concentration 10.0 uM
[7] = target: Histamine H1 receptor (Homo sapiens) (UniProt P35367); assay: Histamine H1 Eurofins Panlabs panel; conditions: Compound concentration 10.0 uM
Chain of Histamine H1 receptor (Homo sapiens) (P35367 whole entry): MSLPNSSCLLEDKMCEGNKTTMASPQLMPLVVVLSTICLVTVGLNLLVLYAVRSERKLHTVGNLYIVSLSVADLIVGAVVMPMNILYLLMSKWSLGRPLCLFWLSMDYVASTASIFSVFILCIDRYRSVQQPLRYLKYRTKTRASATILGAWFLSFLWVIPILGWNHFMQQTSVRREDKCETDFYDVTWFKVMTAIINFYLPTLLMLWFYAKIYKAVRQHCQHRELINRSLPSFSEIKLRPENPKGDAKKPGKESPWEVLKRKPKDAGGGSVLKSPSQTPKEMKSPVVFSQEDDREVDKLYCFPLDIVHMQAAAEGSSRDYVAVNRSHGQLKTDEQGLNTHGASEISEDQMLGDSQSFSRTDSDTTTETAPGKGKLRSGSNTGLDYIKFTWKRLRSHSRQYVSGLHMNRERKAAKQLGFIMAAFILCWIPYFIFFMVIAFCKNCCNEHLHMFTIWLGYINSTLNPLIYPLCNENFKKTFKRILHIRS

[8] = target: Sodium-dependent dopamine transporter (Homo sapiens) (UniProt Q01959); assay: Transporter, Dopamine (DAT) Eurofins Panlabs panel; conditions: Compound concentration 10.0 uM
Chain of Sodium-dependent dopamine transporter (Homo sapiens) (Q01959 whole entry): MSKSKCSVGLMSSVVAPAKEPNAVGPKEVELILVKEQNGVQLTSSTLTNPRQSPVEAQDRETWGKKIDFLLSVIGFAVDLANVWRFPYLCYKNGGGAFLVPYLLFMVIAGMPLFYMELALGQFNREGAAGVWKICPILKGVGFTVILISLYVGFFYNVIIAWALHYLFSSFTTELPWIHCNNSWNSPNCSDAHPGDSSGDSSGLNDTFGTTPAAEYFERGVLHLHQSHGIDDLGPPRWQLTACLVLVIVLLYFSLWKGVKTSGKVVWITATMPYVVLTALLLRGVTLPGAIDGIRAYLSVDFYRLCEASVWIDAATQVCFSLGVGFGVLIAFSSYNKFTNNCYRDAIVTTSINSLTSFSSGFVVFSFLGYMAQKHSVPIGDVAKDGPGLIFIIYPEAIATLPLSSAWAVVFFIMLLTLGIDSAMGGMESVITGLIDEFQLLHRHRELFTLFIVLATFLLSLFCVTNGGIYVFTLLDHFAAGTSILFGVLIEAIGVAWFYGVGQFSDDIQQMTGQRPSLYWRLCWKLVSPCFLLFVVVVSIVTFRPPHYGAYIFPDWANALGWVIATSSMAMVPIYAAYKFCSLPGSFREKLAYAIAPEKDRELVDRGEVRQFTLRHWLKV

[9] = target: Aldo-keto reductase family 1 member B1 (Rattus norvegicus) (UniProt P07943); assay: Aldose Reductase Eurofins Panlabs panel; conditions: Compound concentration 10.0 uM
[10] = target: GABA-A receptor; anion channel (Rattus norvegicus) (UniProt O09028+P15431+P18506+P18508+P19969+P20236+P23574+P23576+P28471+P28473+P30191+P62813+P63079+P63138+Q91ZM7+Q9ES14); assay: GABAA, Chloride Channel, TBOB Eurofins Panlabs panel; format: protein-complex assay; conditions: Compound concentration 10.0 uM
[11] = target: Insulin receptor (Rattus norvegicus) (UniProt P15127); assay: Insulin Eurofins Panlabs panel; conditions: Compound concentration 10.0 uM
[12] = target: Nitric oxide synthase 1 (Rattus norvegicus) (UniProt P29476); assay: Nitric Oxide Synthase, Neuronal (nNOS) Eurofins Panlabs panel; conditions: Compound concentration 10.0 uM
[13] = target: B2 bradykinin receptor (Homo sapiens) (UniProt P30411); assay: Bradykinin B2 Eurofins Panlabs panel; conditions: Compound concentration 10.0 uM
[14] = target: 3-hydroxy-3-methylglutaryl-coenzyme A reductase (Homo sapiens) (UniProt P04035); assay: HMG-CoA Reductase Eurofins Panlabs panel; conditions: Compound concentration 10.0 uM
[15] = target: Androgen receptor (Homo sapiens) (UniProt P10275); assay: Androgen (Testosterone) Eurofins Panlabs panel; conditions: Compound concentration 10.0 uM
[16] = target: Glutamate receptor ionotropic, kainate (Rattus norvegicus) (UniProt P22756+Q01812+P42260+P42264+Q63273); assay: Glutamate, Kainate Eurofins Panlabs panel; format: protein-complex assay; conditions: Compound concentration 10.0 uM
[17] = target: Beta-3 adrenergic receptor (Homo sapiens) (UniProt P13945); assay: Adrenergic beta3 Eurofins Panlabs panel; conditions: concentration not given here
[18] = target: cAMP and cAMP-inhibited cGMP 3',5'-cyclic phosphodiesterase 10A (Homo sapiens, UniProt Q9Y233); assay: 3H-cAMP and 3H-cGMP Scintillation Proximity Assay (PDE10A)
[19] = target: Monoamine oxidase A (MAO-A) (Homo sapiens, UniProt P21397); assay: Monoamine Oxidase MAO-A Eurofins Panlabs panel; conditions: compound concentration 10 uM
[20] = target: Phosphodiesterase 4 (Homo sapiens) (UniProt P27815+Q08499+Q07343+Q08493); assay: Phosphodiesterase PDE4 Eurofins Panlabs panel; format: protein assay; conditions: Compound concentration 10.0 uM
[21] = target: GABA transporter (Rattus norvegicus) (UniProt P31647+P23978+P31646+P48056); assay: Transporter, GABA Eurofins Panlabs panel; format: protein assay; conditions: Compound concentration 10.0 uM
Chain of GABA transporter (Rattus norvegicus) (P31646 whole entry, looked up): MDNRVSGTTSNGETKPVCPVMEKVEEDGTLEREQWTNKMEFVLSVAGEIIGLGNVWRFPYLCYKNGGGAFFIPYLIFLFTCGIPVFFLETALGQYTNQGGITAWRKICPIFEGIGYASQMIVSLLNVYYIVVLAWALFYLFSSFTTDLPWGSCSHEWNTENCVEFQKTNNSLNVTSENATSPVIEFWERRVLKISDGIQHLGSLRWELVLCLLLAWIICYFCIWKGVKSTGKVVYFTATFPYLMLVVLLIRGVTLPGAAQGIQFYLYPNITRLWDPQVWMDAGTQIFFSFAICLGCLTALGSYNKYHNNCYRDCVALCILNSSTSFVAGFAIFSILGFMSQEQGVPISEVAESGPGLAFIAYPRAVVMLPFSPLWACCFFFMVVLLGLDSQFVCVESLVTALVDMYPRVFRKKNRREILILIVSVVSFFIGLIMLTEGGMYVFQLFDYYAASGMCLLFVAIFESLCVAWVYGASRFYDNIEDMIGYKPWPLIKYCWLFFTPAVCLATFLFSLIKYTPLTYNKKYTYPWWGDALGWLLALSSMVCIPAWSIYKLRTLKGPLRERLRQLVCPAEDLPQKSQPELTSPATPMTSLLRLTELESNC
Chain of GABA transporter (Rattus norvegicus) (P31647 whole entry, looked up): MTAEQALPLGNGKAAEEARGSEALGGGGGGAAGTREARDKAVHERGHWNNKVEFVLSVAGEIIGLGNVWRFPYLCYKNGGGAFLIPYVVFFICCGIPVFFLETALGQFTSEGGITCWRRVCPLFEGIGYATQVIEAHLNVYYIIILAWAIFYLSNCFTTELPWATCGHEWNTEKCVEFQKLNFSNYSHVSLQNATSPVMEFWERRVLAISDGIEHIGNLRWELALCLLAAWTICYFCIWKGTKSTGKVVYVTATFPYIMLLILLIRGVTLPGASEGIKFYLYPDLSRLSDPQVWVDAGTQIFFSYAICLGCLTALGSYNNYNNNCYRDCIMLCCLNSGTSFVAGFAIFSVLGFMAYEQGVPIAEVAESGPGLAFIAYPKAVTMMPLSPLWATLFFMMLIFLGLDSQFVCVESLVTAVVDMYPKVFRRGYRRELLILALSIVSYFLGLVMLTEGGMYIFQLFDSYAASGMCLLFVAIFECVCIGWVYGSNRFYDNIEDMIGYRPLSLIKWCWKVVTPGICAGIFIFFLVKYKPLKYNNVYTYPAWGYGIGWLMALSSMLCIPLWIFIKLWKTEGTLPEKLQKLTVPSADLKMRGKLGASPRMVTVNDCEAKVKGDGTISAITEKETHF
Chain of GABA transporter (Rattus norvegicus) (P48056 whole entry, looked up): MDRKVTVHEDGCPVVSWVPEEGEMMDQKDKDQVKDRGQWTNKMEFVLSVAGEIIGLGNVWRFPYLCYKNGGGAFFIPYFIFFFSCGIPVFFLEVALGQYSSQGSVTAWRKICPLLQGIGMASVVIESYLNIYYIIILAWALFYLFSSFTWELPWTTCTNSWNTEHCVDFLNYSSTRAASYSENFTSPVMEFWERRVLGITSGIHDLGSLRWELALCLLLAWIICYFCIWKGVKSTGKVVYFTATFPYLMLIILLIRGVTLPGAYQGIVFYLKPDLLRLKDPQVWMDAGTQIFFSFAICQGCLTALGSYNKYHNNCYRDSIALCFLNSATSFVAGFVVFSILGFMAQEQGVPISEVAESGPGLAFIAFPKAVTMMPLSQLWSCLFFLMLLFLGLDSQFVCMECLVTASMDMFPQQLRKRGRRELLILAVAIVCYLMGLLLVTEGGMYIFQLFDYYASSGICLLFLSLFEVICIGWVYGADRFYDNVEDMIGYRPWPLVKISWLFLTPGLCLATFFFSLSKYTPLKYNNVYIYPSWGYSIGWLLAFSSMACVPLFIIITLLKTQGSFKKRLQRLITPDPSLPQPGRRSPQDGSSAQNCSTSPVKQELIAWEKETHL

[22] = target: Leukotriene C4 synthase (Cavia porcellus) (UniProt A6XA80); assay: Leukotriene LTC4 Synthase Eurofins Panlabs panel; conditions: Compound concentration 10.0 uM
[23] = target: Glutamate receptor ionotropic, AMPA (Rattus norvegicus) (UniProt P19491+P19492+P19493+P19490); assay: Glutamate, AMPA Eurofins Panlabs panel; format: protein-complex assay; conditions: Compound concentration 10.0 uM
[24] = target: Sodium-dependent dopamine transporter (Homo sapiens) (UniProt Q01959); assay: Uptake, Dopamine - Antagonist Eurofins Panlabs panel; conditions: Compound concentration 10.0 uM
[25] = target: Prostaglandin G/H synthase 2 (Homo sapiens) (UniProt P35354); assay: Cyclooxygenase COX-2 Eurofins Panlabs panel; conditions: Compound concentration 10.0 uM
[26] = target: Muscarinic acetylcholine receptor M5 (Homo sapiens) (UniProt P08912); conditions: Compound concentration 10.0 uM
Chain of Muscarinic acetylcholine receptor M5 (Homo sapiens) (P08912 whole entry): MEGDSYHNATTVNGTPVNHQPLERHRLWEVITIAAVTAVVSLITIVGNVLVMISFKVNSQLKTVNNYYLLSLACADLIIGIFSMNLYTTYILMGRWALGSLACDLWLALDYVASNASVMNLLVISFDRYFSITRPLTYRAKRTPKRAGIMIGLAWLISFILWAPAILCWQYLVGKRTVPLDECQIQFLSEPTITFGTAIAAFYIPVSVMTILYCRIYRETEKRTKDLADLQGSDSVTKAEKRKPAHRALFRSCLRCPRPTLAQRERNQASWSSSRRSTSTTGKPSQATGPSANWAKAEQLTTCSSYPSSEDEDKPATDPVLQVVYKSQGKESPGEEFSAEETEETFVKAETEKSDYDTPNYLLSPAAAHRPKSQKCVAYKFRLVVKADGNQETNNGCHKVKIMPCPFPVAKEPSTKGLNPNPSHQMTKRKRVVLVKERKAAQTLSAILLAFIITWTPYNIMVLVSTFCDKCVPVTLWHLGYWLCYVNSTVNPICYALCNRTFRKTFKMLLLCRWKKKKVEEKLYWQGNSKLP

[27] = target: Endothelin-1 receptor (Homo sapiens) (UniProt P25101); assay: Endothelin ETA Eurofins Panlabs panel; conditions: Compound concentration 10.0 uM
[28] = target: T1, Alpha-2C adrenergic receptor (Homo sapiens) (UniProt P18825); assay: Adrenergic alpha2C Eurofins Panlabs panel; conditions: Compound concentration 10.0 uM
T1 sequence (whole entry): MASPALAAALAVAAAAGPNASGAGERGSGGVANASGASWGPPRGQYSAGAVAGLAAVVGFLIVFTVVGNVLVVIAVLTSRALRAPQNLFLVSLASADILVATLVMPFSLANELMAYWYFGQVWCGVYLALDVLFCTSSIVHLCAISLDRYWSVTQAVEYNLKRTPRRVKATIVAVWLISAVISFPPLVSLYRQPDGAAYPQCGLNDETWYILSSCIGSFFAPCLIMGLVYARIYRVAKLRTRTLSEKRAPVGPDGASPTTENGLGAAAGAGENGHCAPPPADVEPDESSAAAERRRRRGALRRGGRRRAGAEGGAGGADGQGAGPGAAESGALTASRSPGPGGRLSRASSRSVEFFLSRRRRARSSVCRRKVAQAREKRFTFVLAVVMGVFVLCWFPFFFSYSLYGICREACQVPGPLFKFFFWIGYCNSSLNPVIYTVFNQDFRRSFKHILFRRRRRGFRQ

[29] = target: B1 bradykinin receptor (Homo sapiens) (UniProt P46663); assay: Bradykinin B1 Eurofins Panlabs panel; conditions: Compound concentration 10.0 uM
[30] = target: Type-2 angiotensin II receptor (Homo sapiens) (UniProt P50052); assay: Angiotensin AT2 Eurofins Panlabs panel; conditions: Compound concentration 10.0 uM
[31] = target: Beta-1 adrenergic receptor (Homo sapiens) (UniProt P08588); assay: Adrenergic beta1 Eurofins Panlabs panel; conditions: Compound concentration 10.0 uM
[32] = target: T2, 3',5'-cyclic-AMP phosphodiesterase 7B (Homo sapiens, UniProt Q9NP56); assay: 3H-cAMP and 3H-cGMP Scintillation Proximity Assay (PDE7B)
T2 sequence (Q9NP56 whole entry): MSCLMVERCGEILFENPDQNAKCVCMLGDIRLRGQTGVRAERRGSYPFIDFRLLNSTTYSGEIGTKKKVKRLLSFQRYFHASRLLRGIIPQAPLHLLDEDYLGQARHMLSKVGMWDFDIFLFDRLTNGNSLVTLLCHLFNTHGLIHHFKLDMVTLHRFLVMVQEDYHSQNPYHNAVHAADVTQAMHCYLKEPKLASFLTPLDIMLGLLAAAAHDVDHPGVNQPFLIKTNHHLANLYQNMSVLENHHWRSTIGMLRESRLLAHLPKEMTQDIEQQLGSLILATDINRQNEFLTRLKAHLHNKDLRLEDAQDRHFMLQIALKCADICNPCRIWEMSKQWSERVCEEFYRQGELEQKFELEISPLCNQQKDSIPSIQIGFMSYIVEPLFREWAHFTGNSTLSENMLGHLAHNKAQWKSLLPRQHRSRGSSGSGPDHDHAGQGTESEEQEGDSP

[33] = target: Histamine H3 receptor (Homo sapiens) (UniProt Q9Y5N1); assay: Histamine H3 Eurofins Panlabs panel; conditions: Compound concentration 10.0 uM
[34] = target: D(3) dopamine receptor (Homo sapiens) (UniProt P35462); assay: Dopamine D3 Eurofins Panlabs panel; conditions: Compound concentration 10.0 uM
[35] = target: 3',5'-cyclic-AMP phosphodiesterase 4B (Homo sapiens, UniProt Q07343); assay: Panlabs assay PDE4B1; design: compound concentration 10 uM; conditions: at 10 µM
[36] = target: 3',5'-cyclic-AMP phosphodiesterase 4C (Homo sapiens) (UniProt Q08493); assay: Panlabs assay PDE4C1; design: compound concentration 10 uM; conditions: at 10 µM
[37] = target: cGMP-dependent 3',5'-cyclic phosphodiesterase (Homo sapiens, UniProt O00408); assay: Panlabs assay PDE2A; design: compound concentration 10 uM; conditions: at 10 µM
[38] = target: 3',5'-cyclic-AMP phosphodiesterase 4D (Homo sapiens) (UniProt Q08499); assay: Panlabs assay PDE4D2; design: compound concentration 10 uM; conditions: at 10 µM
[39] = target: High affinity cGMP-specific 3',5'-cyclic phosphodiesterase 9A (Homo sapiens, UniProt O76083); assay: Panlabs assay PDE9A2; design: compound concentration 10 uM
[40] = target: T2, 3',5'-cyclic-AMP phosphodiesterase 7B; assay: Panlabs assay PDE7B; design: compound concentration 10 uM; conditions: at 10 µM
[41] = target: Dual specificity calcium/calmodulin-dependent 3',5'-cyclic nucleotide phosphodiesterase 1A (Homo sapiens) (UniProt P54750); assay: Panlabs assay PDE1A; design: compound concentration 10 uM; conditions: at 10 µM

**Q.** `CCC[C@H]1CNCc2c1[nH]c(=O)c(C#N)c2N1CCC2(CC1)CC2` was tested. Which inhibition [1] did it give?
**A.** 5%

**Q.** And the inhibition [2]?
**A.** 6%

**Q.** And the inhibition [3]?
**A.** 6.38%

**Q.** What about the inhibition [4] of the same molecule?
**A.** -7.5%

**Q.** What about the inhibition [5] of the same molecule?
**A.** 14%

**Q.** And the inhibition [6]?
**A.** 2%

**Q.** And the inhibition [7]?
**A.** 5%

**Q.** What about the inhibition [8] of the same molecule?
**A.** 19%

**Q.** What about the inhibition [9] of the same molecule?
**A.** 4%

**Q.** And the inhibition [10]?
**A.** 4%

**Q.** And the inhibition [11]?
**A.** 10%

**Q.** And the inhibition [12]?
**A.** -2%

**Q.** What about the inhibition [13] of the same molecule?
**A.** -4%

**Q.** And the inhibition [14]?
**A.** 8%

**Q.** What about the inhibition [15] of the same molecule?
**A.** -6%

**Q.** What about the inhibition [16] of the same molecule?
**A.** -0.5%

**Q.** What about the inhibition [17] of the same molecule?
**A.** 0%

**Q.** What about the IC50 [18] of the same molecule?
**A.** > 10 µM (not active)

**Q.** What about the inhibition at 10 µM [19] of the same molecule?
**A.** 2%

**Q.** What about the inhibition [20] of the same molecule?
**A.** 58%

**Q.** And the inhibition [21]?
**A.** 11%

**Q.** And the inhibition [22]?
**A.** 16%

**Q.** What about the inhibition [23] of the same molecule?
**A.** -2%

**Q.** What about the inhibition [24] of the same molecule?
**A.** 22%

**Q.** And the inhibition [25]?
**A.** -5%

**Q.** And the inhibition [26]?
**A.** -6.97%

**Q.** And the inhibition [27]?
**A.** 3%

**Q.** What about the inhibition [28] of the same molecule?
**A.** -1%

**Q.** What about the inhibition [29] of the same molecule?
**A.** 1%

**Q.** And the inhibition [30]?
**A.** 3%

**Q.** And the inhibition [31]?
**A.** 5.2%

**Q.** What about the IC50 [32] of the same molecule?
**A.** > 10 µM (not active)

**Q.** And the inhibition [33]?
**A.** 5%

**Q.** What about the inhibition [34] of the same molecule?
**A.** 2%

**Q.** Which results are given for `CCC[C@@H]1CNCc2c1[nH]c(=O)c(C#N)c2N1CCC2(CC1)CC2`?
**A.** inhibition [35]: 10.6%; inhibition [36]: 28.6%; inhibition [37]: 3.5%; inhibition [38]: 19.1%; IC50 [39]: 7.47 µM (not active); inhibition [40]: -2.1%; inhibition [41]: 7.7%
